In PubChem BioAssay AID624420 (Sanford-Burnham Center for Chemical Genomics, 2012):

What follows are molecules tested on Human plasma stability, percent remaining (assay: compound stability in Homo sapiens plasma, ADME assay, biochemical, second set (AID 624420)). Conditions: at 1 µM.

In order of rising plasma stability:
1. CS(=O)(=O)c1ccc(C(=O)OCC(=O)NC23CC4CC(CC(C4)C2)C3)cc1[N+](=O)[O-]  0.07%
2. COc1ccc(S(=O)(=O)n2nc(OC(=O)c3ccccc3)cc2N)cc1  0.3%
3. CN(C)C1=C(Cl)C(=O)N(c2ccc(Cl)c(Cl)c2)C1=O  0.83%
4. CCCc1nc2c(=O)n(C)c(=O)nc-2n(C)n1  1.52%
5. N#C/C(=C\c1ccc([N+](=O)[O-])o1)c1nc2ccccc2[nH]1  16.9%
6. CCOC(=O)C(C)Oc1cccc2c(=O)n(CC(=O)Nc3ccc4c(c3)OCCO4)ccc12 (stereo not given)  37.7%
7. O=C(O)CCC(NS(=O)(=O)c1ccc(-c2ccccc2)cc1)C(=O)O (stereo not given)  57%
8. O=C(COC(=O)C12CC3CC(CC(C3)C1)C2)NCc1ccco1  58.7%
9. CCOc1ccc(NC(=S)N2CCC(C(O)(c3ccccc3)c3ccccc3)CC2)cc1  63.7%
10. Cc1ccc(NC(=O)CCC(=O)N/N=C/c2ccc([N+](=O)[O-])o2)cc1C  67%
11. CCCc1cc(C(=O)N(C2CCCCC2)C2CCCCC2)no1  67.4%
12. COc1ccc(N(C(=O)CCl)C(C(=O)NCCc2ccccc2)c2cccs2)cc1Cl (stereo not given)  68.2%
13. O=C1C2CC=CCC2C(=O)N1c1n[nH]c(-c2ccccc2)n1 (stereo not given)  69.8%
14. O=C(O)c1ccccc1OCc1ccccc1Br  76.7%
15. Cn1nnnc1Sc1ncnc2scc(-c3ccccc3)c12  76.8%
16. COc1ccc(C2CC(c3ccccc3)=NN2c2ccc(S(N)(=O)=O)cc2)cc1 (stereo not given)  79.5%
17. COC(=O)c1ccccc1NC(=O)c1ccc(F)cc1  80%
18. CC(=O)c1ccc(N2CCN(S(=O)(=O)c3ccc4c(c3)CC(=O)N4)CC2)cc1  80.6%
19. CSc1nc(-c2ccc(C)cc2)nc(C(Cl)Cl)n1  81.9%
20. Cc1cc2c(s1)c1cnn(Cc3ccccc3F)c(=O)c1n2C  82.8%
21. COc1ccc(OC)c(S(=O)(=O)Nc2cnc3ccccc3c2)c1  83%
22. Cn1cnc([N+](=O)[O-])c1Sc1ncnc2nc[nH]c12  83.2%
23. Cc1cc(C(=O)CN2C(=O)CCC2=O)c(C)n1Cc1ccccc1  84%
24. CCCN1CNc2c(c(=O)[nH]c(=S)n2CCc2ccc(OC)c(OC)c2)C1  85.1%
25. O=c1[nH]c2c(s1)C(c1cccnc1)C1C3CCC(C3)C1S2 (stereo not given)  86.8%
26. Cc1cccc(-n2cnc3cc(C(=O)N4CCCCC4)ccc32)c1  87%
27. O=C(O)c1ccc(N2C(=O)/C(=C/c3ccc(-c4ccc([N+](=O)[O-])cc4)o3)C=C2c2ccccc2)cc1  87.3%
28. CCCC(=O)Nc1cccc(NC(=O)c2ccccc2Br)c1  87.8%
29. Cc1cc(-c2nnc3n2CCCCC3)c(C)n1-c1ccccc1  87.9%
30. O=C(COc1ccccc1Br)NCCc1nc2ccccc2[nH]1  88%
31. Cc1nc(SCc2nc3ccccc3[nH]2)c2oc3ccccc3c2n1  88%
32. Cc1ccccc1N1CCN(c2ncnc3c2cnn3Cc2ccc(Cl)cc2)CC1  88.2%
33. O=C(O)c1cccnc1SCCc1ccccc1  88.3%
34. Cc1cc(C)n(-c2nc(NCCCO)c3c4c(sc3n2)CCCC4)n1  88.5%
35. O=C(CCNS(=O)(=O)c1cccc2nsnc12)N1CCN(c2ccccn2)CC1  91.2%
36. CC[C@H]1CN2CCc3cc(OC)c(OC)cc3[C@@H]2C[C@@H]1C[C@H]1NCCc2cc(OC)c(OC)cc21  91.5%
37. Cc1ccc(C)c(OCCn2cc(C(=O)O)c3ccccc32)c1  91.6%
38. COc1ccc(Sc2ccc(NC(=O)c3ccccc3Cl)cc2C#N)cc1  91.9%
39. Cc1ccc(S(=O)(=O)C(c2ccccc2)c2c(C)noc2C)cc1 (stereo not given)  91.9%
40. Cc1ccc(C(=O)n2c3ccccc3c3ccccc32)cc1  92%
41. COc1ccc(CNCc2cccc3ccccc23)cc1  92.1%
42. COc1ccc(C2c3c(ncn(CCN4CCOCC4)c3=N)Oc3ccc4ccccc4c32)cc1OC (stereo not given)  93.5%
43. COc1ccccc1N(/N=C1\Sc2ccccc2C1=O)C(C)=O  94.1%
44. CN(C)c1oc(-c2ccc(OCc3ccc(Cl)cc3)cc2)nc1C#N  94.3%
45. CCc1oc2ccccc2c1C(=O)c1cc(Br)c(O)c(Br)c1  94.6%
46. N#Cc1ccccc1CSc1nc2ncc(Br)cc2[nH]1  95.4%
47. O=C1NCCCc2c1oc1ccc(O)cc21  95.7%
48. Cc1ccc(S(=O)(=O)n2c(N)nc3ccccc32)cc1  95.8%
49. COc1ccc(S(=O)(=O)N2CCN(S(=O)(=O)c3ccc4c(c3)OCCO4)CC2)cc1  96.4%
50. O=C(c1ccccn1)N(Cc1cccs1)C1(C(=O)NC2CCCCC2)CCCCC1  96.7%
51. NC(=O)C1CCN(c2nc(-c3ccc(Br)cc3)cs2)CC1  96.8%
52. Brc1cc2c(cc1C1Nc3ccccc3C3C=CCC31)OCO2 (stereo not given)  97%
53. Cc1cc(C)nc(-n2nc(C)c(Sc3ccc(F)cc3)c2N)n1  97%
54. O=[N+]([O-])c1ccc(CN2CCOCCOCCN(Cc3ccc([N+](=O)[O-])cc3)CCOCC2)cc1  98.3%
55. C/C=C/Cn1c(SCCCc2ccccc2)nc2c1c(=O)[nH]c(=O)n2C  98.5%
56. O=C(CSc1cccc2cccnc12)N1CCCC1  99.3%
57. c1ccc2c(Nc3nnc(-c4ccncc4)s3)cccc2c1  99.5%
58. Cc1ccc(-n2c(N)c(C#N)c(-c3ccccc3)c(C#N)c2=O)cc1  99.8%
59. CCOc1ccc(-c2nc(-c3ccncc3)no2)cc1OCC  100%
60. Cc1ccnc(NC(=O)CCCOc2cc(=O)n(C)c3ccccc23)c1  100%
61. CC(C)C(=O)NC(c1ccco1)c1ccc2cccnc2c1O (stereo not given)  100%
62. O=S1(=O)Nc2c(ccc3cccnc23)-c2ccccc21  100%
63. COc1ccc(CSc2nc(C)cc(=O)[nH]2)cc1  100%
64. COc1cccc(-c2nc(-c3ccc(NC(=O)Cc4ccccc4OC)cc3)no2)c1  100%
65. O=S(=O)(NC1CCCCC1N1CCOCC1)c1ccc(Cl)cc1 (stereo not given)  100%
66. CCN1CCN(c2nc3ccccc3nc2C(C#N)C(=O)OC2CCCCC2)CC1 (stereo not given)  100%
67. CC1CCCN(C(C(=O)Nc2ccc3c(c2)OCCO3)c2ccccc2)C1 (stereo not given)  100%
68. Brc1ccc2c(c1)CN1CCCC1=N2  100%
69. CCCn1ncc(CN2CCCC(C(=O)c3cccc(OC(C)C)c3)C2)c1C (stereo not given)  100%
70. c1ccc(CC2CCN(c3ncnc4sccc34)CC2)cc1  100%
71. Cc1ccc(N2CCN(S(=O)(=O)N3CCCCC3)CC2)c(C)c1  100%
72. Cc1ccc(C)c(NS(=O)(=O)c2cc(C(=O)Nc3ccccc3-c3ccccc3)ccc2Cl)c1  100%
73. Cc1ccc(S(=O)(=O)NCc2ccc(C(=O)NCCN(Cc3ccccc3)C(C)C)cc2)cc1  100%
74. O=c1c2ccccc2[se]n1-c1ccccc1  100%
75. CCCN(CCC)CCNC(=O)C1CCN(Cc2nc(-c3ccc(Cl)cc3)oc2C)CC1  100%
76. O=C1CCCC2=C1C1(CCCC1)N=C(Nc1nc3ccccc3o1)N2  100%
77. CN(C)c1nc(N)nc(CSc2nnnn2-c2cccc3ccccc23)n1  100%
78. CCCOc1ccc(-c2nc(OC)c3ccccc3n2)cc1  100%
79. O=c1[nH]c(SCc2ccc(Cl)cc2)nc2c1CCC2  100%
80. Cc1ccc(NS(=O)(=O)c2ccc3c(c2)CCC(=O)N3)cc1C  100%
81. CCc1nnc(NC(=O)c2ccc(NS(=O)(=O)c3ccccc3)cc2)s1  100%
82. COc1ccc(OC)c(-c2nnc3n2N=C(c2ccc(OC)c(OC)c2)CS3)c1  100%
83. c1ccc(-c2nnc(N3CCOCC3)nc2-c2ccccc2)cc1  100%
84. COc1nc(-c2ccccc2)nnc1-c1ccccc1  100%
85. C=CCn1c(SCC(=O)c2ccc(O)c(O)c2)nnc1-c1ccccc1OC  100%
